# In PubChem BioAssay (NCI):
#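 The concentration for 50% growth inhibition is given as GI50. TGI is the concentration that stops growth completely.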
# Tests used:
# Assay in all cases: inhibition of tumour cell growth, NCI panel, 384-well format
# CCRF-CEM leukemia = test system: CCRF-CEM leukemia
# MDA-MB-468 breast = test system: MDA-MB-468 breast
# NCI-H460 NSCLC = test system: NCI-H460 NSCLC
# U251 glioblastoma = test system: U251 glioblastoma
# SF-539 CNS = test system: SF-539 CNS
# HCT-116 colon = test system: HCT-116 colon
# HT29 colon = test system: HT29 colon
# SR leukemia = test system: SR leukemia
# K-562 leukemia = test system: K-562 leukemia
# NCI-H322M lung = test system: NCI-H322M lung
# M14 melanoma = test system: M14 melanoma
# ACHN renal = test system: ACHN renal
# NCI-H23 lung = test system: NCI-H23 lung
# RXF 393 renal = test system: RXF 393 renal
# PC-3 prostate = test system: PC-3 prostate
# MDA-MB-435 melanoma = test system: MDA-MB-435 melanoma
# MDA-MB-231 breast = test system: MDA-MB-231 breast
# COLO 205 colon = test system: COLO 205 colon
# SF-268 CNS = test system: SF-268 CNS
# OVCAR-5 ovarian = test system: OVCAR-5 ovarian
# HOP-62 NSCLC = test system: HOP-62 NSCLC
# TK-10 renal = test system: TK-10 renal
# HL-60(TB) leukemia = test system: HL-60(TB) leukemia
# CAKI-1 renal = test system: CAKI-1 renal
# SNB-19 CNS = test system: SNB-19 CNS
# HCC-2998 colon = test system: HCC-2998 colon
# RPMI-8226 leukemia = test system: RPMI-8226 leukemia
# T-47D breast = test system: T-47D breast
# HS 578T breast = test system: HS 578T breast
# SNB-75 CNS = test system: SNB-75 CNS
# NCI-H226 lung = test system: NCI-H226 lung
# UACC-257 melanoma = test system: UACC-257 melanoma
# SK-MEL-2 melanoma = test system: SK-MEL-2 melanoma
# NCI-H522 lung = test system: NCI-H522 lung
# DU-145 prostate = test system: DU-145 prostate
# UACC-62 melanoma = test system: UACC-62 melanoma
# HOP-92 NSCLC = test system: HOP-92 NSCLC
# NCI/ADR-RES ovarian = test system: NCI/ADR-RES ovarian
# SK-OV-3 ovarian = test system: SK-OV-3 ovarian
# OVCAR-4 ovarian = test system: OVCAR-4 ovarian
# 786-0 renal = test system: 786-0 renal
# SK-MEL-28 melanoma = test system: SK-MEL-28 melanoma
# SW-620 colon = test system: SW-620 colon
# OVCAR-3 ovarian = test system: OVCAR-3 ovarian
# A549 NSCLC = test system: A549 NSCLC
# UO-31 renal = test system: UO-31 renal
# SF-295 CNS = test system: SF-295 CNS
# OVCAR-8 ovarian = test system: OVCAR-8 ovarian
# HCT-15 colon = test system: HCT-15 colon
# KM12 colon = test system: KM12 colon
# MALME-3M melanoma = test system: MALME-3M melanoma
# MOLT-4 leukemia = test system: MOLT-4 leukemia
# IGROV1 ovarian = test system: IGROV1 ovarian
# MCF7 breast = test system: MCF7 breast
# SN12C renal = test system: SN12C renal
# EKVX NSCLC = test system: EKVX NSCLC
# LOX IMVI melanoma = test system: LOX IMVI melanoma
# A498 renal = test system: A498 renal
# BT-549 breast = test system: BT-549 breast
# SK-MEL-5 melanoma = test system: SK-MEL-5 melanoma
structure (smiles),measurement,setting,value
Cc1cc2cc(Oc3ccnc(Nc4cccc(CS(=O)(=O)NCCN(C)C)c4)n3)ccc2[nH]1,GI50,CCRF-CEM leukemia,1.96 µM
same,TGI,CCRF-CEM leukemia,3.65 µM
same,GI50,MDA-MB-468 breast,3.19 µM
same,TGI,MDA-MB-468 breast,7.85 µM
same,GI50,NCI-H460 NSCLC,2.62 µM
same,TGI,NCI-H460 NSCLC,6.54 µM
same,GI50,U251 glioblastoma,3.56 µM
same,TGI,U251 glioblastoma,14.5 µM
same,GI50,SF-539 CNS,2.04 µM
same,TGI,SF-539 CNS,6.29 µM
same,GI50,HCT-116 colon,3.29 µM
same,TGI,HCT-116 colon,11.8 µM
same,GI50,HT29 colon,2.4 µM
same,TGI,HT29 colon,6.03 µM
same,GI50,SR leukemia,1.38 µM
same,TGI,SR leukemia,2.69 µM
same,GI50,K-562 leukemia,1.27 µM
same,TGI,K-562 leukemia,2.59 µM
same,GI50,NCI-H322M lung,10.7 µM
same,TGI,NCI-H322M lung,23.2 µM
same,GI50,M14 melanoma,3.38 µM
same,TGI,M14 melanoma,7.81 µM
same,GI50,ACHN renal,6.45 µM
same,TGI,ACHN renal,19 µM
same,GI50,NCI-H23 lung,2.51 µM
same,TGI,NCI-H23 lung,8.7 µM
same,GI50,RXF 393 renal,1.83 µM
same,TGI,RXF 393 renal,4.32 µM
same,GI50,PC-3 prostate,4.19 µM
same,TGI,PC-3 prostate,14.9 µM
same,GI50,MDA-MB-435 melanoma,7.5 µM
same,TGI,MDA-MB-435 melanoma,19.6 µM
same,GI50,MDA-MB-231 breast,6.73 µM
same,TGI,MDA-MB-231 breast,19.1 µM
same,GI50,COLO 205 colon,4.4 µM
same,TGI,COLO 205 colon,10.2 µM
same,GI50,SF-268 CNS,3.93 µM
same,TGI,SF-268 CNS,14.1 µM
same,GI50,OVCAR-5 ovarian,3.81 µM
same,TGI,OVCAR-5 ovarian,13.1 µM
same,GI50,HOP-62 NSCLC,7.38 µM
same,TGI,HOP-62 NSCLC,20.2 µM
same,GI50,TK-10 renal,8.76 µM
same,TGI,TK-10 renal,21.2 µM
same,GI50,HL-60(TB) leukemia,2.45 µM
same,TGI,HL-60(TB) leukemia,5.63 µM
same,GI50,CAKI-1 renal,3.61 µM
same,TGI,CAKI-1 renal,13.9 µM
same,GI50,SNB-19 CNS,8.83 µM
same,TGI,SNB-19 CNS,21.2 µM
same,GI50,HCC-2998 colon,2.02 µM
same,TGI,HCC-2998 colon,3.98 µM
same,GI50,RPMI-8226 leukemia,3.29 µM
same,TGI,RPMI-8226 leukemia,11.4 µM
same,GI50,T-47D breast,7.08 µM
same,TGI,T-47D breast,19.2 µM
same,GI50,HS 578T breast,1.69 µM
same,TGI,HS 578T breast,5.72 µM
same,GI50,SNB-75 CNS,1.55 µM
same,TGI,SNB-75 CNS,3.81 µM
same,GI50,NCI-H226 lung,1.95 µM
same,TGI,NCI-H226 lung,12.5 µM
same,GI50,UACC-257 melanoma,1.84 µM
same,TGI,UACC-257 melanoma,3.26 µM
same,GI50,SK-MEL-2 melanoma,2.64 µM
same,TGI,SK-MEL-2 melanoma,6.28 µM
same,GI50,NCI-H522 lung,2.47 µM
same,TGI,NCI-H522 lung,7.78 µM
same,GI50,DU-145 prostate,8.4 µM
same,TGI,DU-145 prostate,20.8 µM
same,GI50,UACC-62 melanoma,2.78 µM
same,TGI,UACC-62 melanoma,7.45 µM
same,GI50,HOP-92 NSCLC,2.51 µM
same,TGI,HOP-92 NSCLC,7.51 µM
same,GI50,NCI/ADR-RES ovarian,15.3 µM
same,TGI,NCI/ADR-RES ovarian,28.8 µM
same,GI50,SK-OV-3 ovarian,8.13 µM
same,TGI,SK-OV-3 ovarian,20.8 µM
same,GI50,OVCAR-4 ovarian,12 µM
same,TGI,OVCAR-4 ovarian,24.4 µM
same,GI50,786-0 renal,3.36 µM
same,TGI,786-0 renal,11.9 µM
same,GI50,SK-MEL-28 melanoma,4.58 µM
same,TGI,SK-MEL-28 melanoma,12.4 µM
same,GI50,SW-620 colon,11.1 µM
same,TGI,SW-620 colon,23.3 µM
same,GI50,OVCAR-3 ovarian,6.2 µM
same,TGI,OVCAR-3 ovarian,18 µM
same,GI50,A549 NSCLC,7.13 µM
same,TGI,A549 NSCLC,19.4 µM
same,GI50,UO-31 renal,10.6 µM
same,TGI,UO-31 renal,22.5 µM
same,GI50,SF-295 CNS,8.49 µM
same,TGI,SF-295 CNS,21.1 µM
same,GI50,OVCAR-8 ovarian,9.99 µM
same,TGI,OVCAR-8 ovarian,22.1 µM
same,GI50,HCT-15 colon,5.47 µM
same,TGI,HCT-15 colon,16.7 µM
same,GI50,KM12 colon,0.736 µM
same,TGI,KM12 colon,12.2 µM
same,GI50,MALME-3M melanoma,1.84 µM
same,TGI,MALME-3M melanoma,3.34 µM
same,GI50,MOLT-4 leukemia,1.8 µM
same,TGI,MOLT-4 leukemia,3.24 µM
same,GI50,IGROV1 ovarian,3.05 µM
same,TGI,IGROV1 ovarian,9.84 µM
same,GI50,MCF7 breast,3.48 µM
same,TGI,MCF7 breast,12.7 µM
same,GI50,SN12C renal,3.66 µM
same,TGI,SN12C renal,13.2 µM
same,GI50,EKVX NSCLC,5.04 µM
same,TGI,EKVX NSCLC,16.7 µM
same,GI50,LOX IMVI melanoma,1.93 µM
same,TGI,LOX IMVI melanoma,4.2 µM
same,GI50,A498 renal,3.08 µM
same,TGI,A498 renal,11.1 µM
same,GI50,BT-549 breast,2.19 µM
same,TGI,BT-549 breast,7.26 µM
same,GI50,SK-MEL-5 melanoma,1.74 µM
same,TGI,SK-MEL-5 melanoma,3.16 µM
